# Results reported in paper PMC4357015, “Structure, Function and Inhibition of the Phosphoethanolamine Methyltransferases of the Human Malaria Parasites Plasmodium vivax and Plasmodium knowlesi” (Scientific Reports, 2015).
# T1: PvPMT (Plasmodium vivax, UniProt A5K867)
# T1 sequence (A5K867 1-264): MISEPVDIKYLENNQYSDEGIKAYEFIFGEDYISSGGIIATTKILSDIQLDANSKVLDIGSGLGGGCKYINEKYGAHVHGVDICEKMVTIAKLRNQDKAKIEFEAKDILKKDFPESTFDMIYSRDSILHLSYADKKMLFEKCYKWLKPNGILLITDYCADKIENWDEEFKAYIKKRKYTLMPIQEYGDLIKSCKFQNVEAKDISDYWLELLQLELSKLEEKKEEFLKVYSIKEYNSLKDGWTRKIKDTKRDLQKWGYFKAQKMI
# T2: PkPMT (Plasmodium knowlesi, UniProt A0A384KJX3)
# T2 sequence (A0A384KJX3 1-264): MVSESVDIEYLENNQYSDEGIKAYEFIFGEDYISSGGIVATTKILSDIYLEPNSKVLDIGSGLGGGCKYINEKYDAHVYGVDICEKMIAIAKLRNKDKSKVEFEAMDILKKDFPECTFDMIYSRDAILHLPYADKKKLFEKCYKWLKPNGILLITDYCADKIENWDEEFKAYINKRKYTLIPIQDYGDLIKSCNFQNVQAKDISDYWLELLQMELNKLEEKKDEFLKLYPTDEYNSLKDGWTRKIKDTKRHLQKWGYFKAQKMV
# B1: PkPMT (Plasmodium knowlesi strain H) (protein)
# chain: T2 sequence (A0A384KJX3 1-264)
# B2: PvPMT (Plasmodium vivax Sal-1) (protein)
# chain: T1 sequence (A5K867 1-264)
# Legend:
# [1] = target: T1, PvPMT; test: radiometric PMT transmethylation assay, inhibition of PvPMT; type: biochemical
# Method: (§1) Figure 3 Amodiaquine (AQ) and NSC158011 inhibit the activity of PvPMT and PkPMT. Enzyme inhibition assays with different concentrations of Amodiaquine (AQ), NSC158011 and Chloroquine (CQ) were carried out at constant P-Etn (2 mM) and SAM (1.5 mM) concentrations. The activity in the absence of any drug was taken as 100% and % enzyme activity was calculated in the presence of different drug concentrations (100, 500, 1000 μM). To determine the concentration that results in 50% inhibition of enzyme activity (IC50), the data were fitted to a non-linear regression analysis in the following equation Y = 100/(1 + ([X]/IC50)), where Y is % enzyme activity and X is drug concentration using Graph pad software.
# (§2) For enzyme kinetics studies recombinant histidine-tagged proteins were expressed using 1 mM IPTG for 4 h, purified using Ni-affinity purification and dialyzed. As expected, purified proteins migrated in SDS-PAGE gels at approximately 31 kDa. The purified proteins were stored in HEPES-KOH buffer (pH 7.4) at 4°C and were assayed within a month of purification. During this time, the integrity of the protein was assessed by SDS-PAGE. The kinetic properties of enzymes were assessed using radiometric assay wherein incorporation of radioactive labeled methyl donor (100nCi [methyl-^14C] SAM, Perkin elmer NEC363010UC) or (200nCi [methyl-^3H] SAM, Perkin Elmer NET155H250UC) was measured. […]
# [2] = target: T2, PkPMT; test: radiometric PMT transmethylation assay, inhibition of PkPMT; type: biochemical
# Method: as §1, §2
# [3] = target: T1, PvPMT; test: kinetic parameters of PvPMT, radiometric assay; type: biochemical; details: varied substrate, other constant (SAM 1.5 mM or P-Etn 2.0 mM)
# Method: (§3) Figure 2 Analysis of kinetic parameters of P.vivax (top panel) and P. knowlesi PMT enzymes (bottom panel). The Km values for phosphoethanolamine (P-Etn) was determined under standard assay conditions with varying concentrations of P-Eth (0–800 μM) and at constant S-adenosylmethionine (SAM) concentration of 1.5 mM. The Km values for SAM were determined under standard assay conditions with varying concentrations of SAM (0–600 μM) and at constant P-Etn concentration of 2.0 mM. All data were fitted to the Michaelis-Menten equation, v = (kcat [Et][S])/(Km + [S]) using Graph pad software.
# (§4) For enzyme kinetics studies recombinant histidine-tagged proteins were expressed using 1 mM IPTG for 4 h, purified using Ni-affinity purification and dialyzed. As expected, purified proteins migrated in SDS-PAGE gels at approximately 31 kDa. The purified proteins were stored in HEPES-KOH buffer (pH 7.4) at 4°C and were assayed within a month of purification. During this time, the integrity of the protein was assessed by SDS-PAGE. The kinetic properties of enzymes were assessed using radiometric assay wherein incorporation of radioactive labeled methyl donor (100nCi [methyl-^14C] SAM, Perkin elmer NEC363010UC) or (200nCi [methyl-^3H] SAM, Perkin Elmer NET155H250UC) was measured. The enzymatic assay conditions were carried out in 100 μl volume containing 0.1 M Hepes, KOH (pH8.6), 2 mM Na2EDTA and10% glycerol. For NSC158011 related studies, 10% DMSO was added to the reaction mixture. Purified enzyme (322 nM) was used in each reaction and the reactions were incubated at 37°C for 30 minutes, thereafter the reaction was terminated using 1 ml cold water. Afterwards, the product was purified by batch purification using AG (H+ resin) (Biorad # 142-1451) using the protocol provided by the manufacturer. The product was eluted from resin using 1.5 ml of 0.1 N HCl and total radioactivity was measured using the scintillation cocktail (Biosafe II).
# (§5) To determine the Km value for P-Eth, enzymatic reactions were carried out with 0-0.8 mM of P-Eth at constant 1.5 mM SAM. Similarly Km value for SAM was carried with 0–0.6 mM SAM at constant 2 mM P-Ethanolamine (P-Etn). The inhibition of PvPMT and PkPMT by AQ, CQ and NSC158011were also examined using the same radiometric PMT transmethylation assay. Enzyme activity was evaluated at 0, 100, 500 and 1000 μM of the inhibitor at a fixed concentration of P-Eth (2 mM) and SAM (1.5 mM). To calculate IC50 the data was fitted to non-linear regression analysis in the following equation Y = 100/(1 + ([X]/IC50)), where Y is % enzyme activity and X is inhibitor concentration using Graph pad software.
# [4] = target: T2, PkPMT; test: kinetic parameters of PkPMT, radiometric assay; type: biochemical; details: varied substrate, other constant (SAM 1.5 mM or P-Etn 2.0 mM)
# Method: as §3, §4, §5
# [5] = substrate: C[S+](CC[C@H](N)C(=O)[O-])C[C@H]1O[C@@H](n2cnc3c(N)ncnc32)[C@H](O)[C@@H]1O; test: kinetic parameters of PkPMT, radiometric assay; type: biochemical, Plasmodium knowlesi; details: other: PkPMT; varied substrate, other constant (SAM 1.5 mM or P-Etn 2.0 mM); 37.0 °C
# Method: as §3, §4
# (§6) To determine the Km value for P-Eth, enzymatic reactions were carried out with 0-0.8 mM of P-Eth at constant 1.5 mM SAM. […]
# [6] = substrate: C[S+](CC[C@H](N)C(=O)[O-])C[C@H]1O[C@@H](n2cnc3c(N)ncnc32)[C@H](O)[C@@H]1O; test: kinetic parameters of PvPMT, radiometric assay; type: biochemical, Plasmodium vivax; details: other: PvPMT; varied substrate, other constant (SAM 1.5 mM or P-Etn 2.0 mM); 37.0 °C
# Method: as §3, §4, §6
molecule,measurement,setting,value
"CCN(CC)CCCC(C)Nc1ccnc2cc(Cl)ccc12 (stereo not shown) [CQ, chloroquine]",IC50,[1],146 µM
same,IC50,[2],987 µM
"C[S+](CC[C@H](N)C(=O)[O-])C[C@H]1O[C@@H](n2cnc3c(N)ncnc32)[C@H](O)[C@@H]1O (stereo partly shown) [SAM, S-adenosylmethionine]",Vmax,[3],12.62 ± 0.95 nmolmin^−1 mg^−1Protein
same,Vmax,[4],119.7 ± 15.41 nmolmin^−1 mg^−1Protein
"NCCOP(=O)(O)O [P-Etn, phosphoethanolamine]",Kcat,[3],0.00083 ± 0.00017 s⁻¹
same,Km,[3],210 ± 70 µM
same,Vmax,[3],18.67 ± 2.93 nmolmin^−1 mg^−1Protein
same,Kcat,[4],0.00433 ± 0.00033 s⁻¹
same,Km,[4],100 ± 30 µM
same,Vmax,[4],86.01 ± 8.35 nmolmin^−1 mg^−1Protein
B1,Km,[5],270 ± 90 µM
same,kcat,[5],0.00617 ± 0.0005 s⁻¹
same,kcat/Km,[5],22.8 M⁻¹ s⁻¹
B2,Km,[6],230 ± 70 µM
same,kcat,[6],0.000667 ± 0.000333 s⁻¹
same,kcat/Km,[6],2.83 M⁻¹ s⁻¹
